Laboratory results taken from patent US20240124450A1, “Novel SIK Inhibitors” (Pfizer Inc., priority 2022, published 2024).
Where two headings read alike, the source gives them in different places.

How the values were obtained:
SIK1 = SIK1 (Homo sapiens (Human), UniProt P57059); assay: Pan SIK MS IC50 enzyme assay (SIK1); assay type: biochemical; conditions: 1 mM ATP, substrate peptide AQT0868, LCMS/MS detection
Description: (§1) Enzyme Assay: Pan SIK MS IC50 Assay
(§2) Salt Induced Kinase (SIK) activity is determined by measuring the effect of a test agent on the activity of the appropriate SIK enzyme to phosphorylate its corresponding substrate. […] The phosphorylated substrate product resulting from the kinase reaction is detected by LCMS/MS, and the area under the peak curve correlates with kinase activity. […] The plates are spun at 1000 rpm for 30 seconds to ensure compounds are at the bottom of the well before removing foil covers. 0.15 μL HPE (assay std) and ZPE (DMSO) are added to the ARP using an HP D300 dispenser. Plates are spun again at 1000 rpm for 30 seconds. […] Plates are spun at 1000 rpm for 30 seconds. Plates are then sealed and incubated at RT for 10 minutes. Following incubation, 5 μL of 5× peptide reagent is added with a Multidrop Combi and designated small volume cassette to initiate the kinase reaction. Plates are spun at 1000 rpm for 30 seconds. Plates are then sealed and incubated at RT for 90 minutes. The assay is stopped by the addition of 5 μl of 120 mM EDTA added with a Multidrop Combi and designated small volume cassette (20 mM final concentration). Plates are spun at 1000 rpm for 30 seconds. 10 μl of the final reaction mix from each of the three individual enzyme plates are transferred by a Platemate Plus to the same corresponding 96 well deepwell plate containing 70 μl Water/Methanol (85/15%) for multiplex MS detection ([…]). Using Activity Base (ABase), an idbs data analysis software tool, the reported area ratio unit data is associated to compound, batch and dose information, the data is evaluated for quality, and the percent inhibition of each well is calculated. The data from each Max effect/HPE and Min effect/ZPE control wells are assessed, and outliers are excluded from all further calculations. The mean and standard deviation of the HPE and ZPE are then calculated for each plate, along with the Z Prime. The compound data is converted into % effect, using the average ZPE and HPE controls as 0% and 100% activity, respectively.

SIK2 = SIK2 (Homo sapiens (Human), UniProt Q9H0K1); assay: Pan SIK MS IC50 enzyme assay (SIK2); assay type: biochemical; conditions: 1 mM ATP, substrate peptide AQT0252, LCMS/MS detection
Description: as §1, §2

SIK3 = SIK3 (Homo sapiens (Human), UniProt Q9Y2K2); assay: Pan SIK MS IC50 enzyme assay (SIK3); assay type: biochemical; conditions: 1 mM ATP, substrate peptide AQT0508, LCMS/MS detection
Description: as §1, §2

[1] = system: TNFα release from human monocyte derived macrophages stimulated with LPS; assay: SIK macrophage cytokine assay, inhibition of TNFα release; assay type: cell-based; conditions: 1 ng/mL LPS, 4 hours, HTRF, read-out: TNFa IC50
Description: (§3) Cytokine Assays: SIK Macrophage Assay Cytokine activity is determined by measuring the effect of a test agent on the inhibitory release of the cytokine TNFα and the increasing release of the cytokine IL10 from human monocyte derived macrophages (human macrophages) stimulated with lipopolysaccharide (LPS). At the time of assay, human macrophages (CGPS group Pfizer Groton, CT) are removed from cryopreservation, thawed quickly at 37° C., diluted in thaw medium (OptiMEM—Gibco medium, 10% heat inactivated fetal bovine serum (HIFBS)), and then centrifuged at 200×g for 10 minutes. […] After ˜60 minutes in an incubator at 37° C. in a humidified environment in 5% carbon dioxide the cells are stimulated by the addition of 5 μL of LPS (10 ng/mL; Sigma) and the assay plate is returned to an incubator at 37° C. in a humidified environment in 5% carbon dioxide for 4 hours. […] The final concentration of DMSO in the assay is approximately 0.1%. After 4 hours, the assay plate is removed from the incubator and centrifuged at 1500 rpm for 10 minutes. A portion of the resulting cell supernatant is then used to determine the amount of IL-10 and TNFα in each well. Cytokine measurements are made using human IL-10 and TNFα HTRF assay kits (Perkin Elmer) following the manufacturer's assay protocol.

[2] = system: IL10 release from human monocyte derived macrophages stimulated with LPS; assay: SIK macrophage cytokine assay, increase of IL10 release; assay type: cell-based; conditions: 1 ng/mL LPS, 4 hours, HTRF
Description: as §3

SIK2, sequence (Q9H0K1 whole entry, species assumed): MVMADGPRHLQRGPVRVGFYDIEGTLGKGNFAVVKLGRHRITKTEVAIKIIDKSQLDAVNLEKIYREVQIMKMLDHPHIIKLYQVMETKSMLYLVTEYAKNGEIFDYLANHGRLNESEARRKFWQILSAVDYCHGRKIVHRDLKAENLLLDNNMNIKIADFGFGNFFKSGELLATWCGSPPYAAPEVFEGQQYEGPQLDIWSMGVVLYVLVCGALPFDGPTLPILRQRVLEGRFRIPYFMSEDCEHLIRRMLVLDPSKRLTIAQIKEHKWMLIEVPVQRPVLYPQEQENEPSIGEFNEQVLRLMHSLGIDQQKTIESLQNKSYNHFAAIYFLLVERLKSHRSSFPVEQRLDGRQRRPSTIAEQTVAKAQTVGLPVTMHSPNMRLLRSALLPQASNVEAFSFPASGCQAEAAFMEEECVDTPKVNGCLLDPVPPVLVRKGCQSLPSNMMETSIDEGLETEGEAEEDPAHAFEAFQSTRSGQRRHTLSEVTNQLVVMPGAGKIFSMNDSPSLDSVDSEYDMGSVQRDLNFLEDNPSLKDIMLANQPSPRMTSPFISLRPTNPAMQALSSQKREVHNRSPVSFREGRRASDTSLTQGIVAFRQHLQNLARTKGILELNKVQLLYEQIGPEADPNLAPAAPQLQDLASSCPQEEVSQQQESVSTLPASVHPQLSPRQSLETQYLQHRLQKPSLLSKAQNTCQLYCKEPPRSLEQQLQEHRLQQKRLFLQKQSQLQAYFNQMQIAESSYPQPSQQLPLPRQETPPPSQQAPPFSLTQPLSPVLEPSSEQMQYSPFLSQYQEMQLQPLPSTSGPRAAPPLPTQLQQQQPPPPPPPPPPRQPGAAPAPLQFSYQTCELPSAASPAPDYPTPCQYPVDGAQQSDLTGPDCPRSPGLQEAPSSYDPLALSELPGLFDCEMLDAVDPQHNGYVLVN
SIK1, sequence (P57059 whole entry, species assumed): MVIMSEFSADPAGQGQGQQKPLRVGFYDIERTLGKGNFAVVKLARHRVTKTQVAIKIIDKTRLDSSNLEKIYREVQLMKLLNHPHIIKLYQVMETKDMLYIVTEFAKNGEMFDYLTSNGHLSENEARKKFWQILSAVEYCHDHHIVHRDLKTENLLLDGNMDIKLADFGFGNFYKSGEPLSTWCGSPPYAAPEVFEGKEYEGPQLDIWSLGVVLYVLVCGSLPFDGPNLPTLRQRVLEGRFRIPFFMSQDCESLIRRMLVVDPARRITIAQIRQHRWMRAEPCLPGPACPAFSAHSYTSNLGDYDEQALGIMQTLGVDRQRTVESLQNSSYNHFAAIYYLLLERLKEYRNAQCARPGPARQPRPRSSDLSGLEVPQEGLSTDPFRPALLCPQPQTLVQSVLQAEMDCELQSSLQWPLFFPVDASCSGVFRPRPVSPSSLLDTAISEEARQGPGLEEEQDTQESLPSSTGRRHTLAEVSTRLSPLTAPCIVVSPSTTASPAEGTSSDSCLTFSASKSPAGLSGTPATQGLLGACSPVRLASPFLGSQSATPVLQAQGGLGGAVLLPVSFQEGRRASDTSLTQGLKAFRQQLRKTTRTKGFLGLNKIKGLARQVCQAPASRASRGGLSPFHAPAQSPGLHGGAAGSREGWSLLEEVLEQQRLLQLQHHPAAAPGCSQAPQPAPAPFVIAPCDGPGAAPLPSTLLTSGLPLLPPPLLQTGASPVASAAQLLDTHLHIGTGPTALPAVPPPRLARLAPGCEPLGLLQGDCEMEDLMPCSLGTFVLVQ
SIK3, sequence (Q9Y2K2 whole entry, species assumed): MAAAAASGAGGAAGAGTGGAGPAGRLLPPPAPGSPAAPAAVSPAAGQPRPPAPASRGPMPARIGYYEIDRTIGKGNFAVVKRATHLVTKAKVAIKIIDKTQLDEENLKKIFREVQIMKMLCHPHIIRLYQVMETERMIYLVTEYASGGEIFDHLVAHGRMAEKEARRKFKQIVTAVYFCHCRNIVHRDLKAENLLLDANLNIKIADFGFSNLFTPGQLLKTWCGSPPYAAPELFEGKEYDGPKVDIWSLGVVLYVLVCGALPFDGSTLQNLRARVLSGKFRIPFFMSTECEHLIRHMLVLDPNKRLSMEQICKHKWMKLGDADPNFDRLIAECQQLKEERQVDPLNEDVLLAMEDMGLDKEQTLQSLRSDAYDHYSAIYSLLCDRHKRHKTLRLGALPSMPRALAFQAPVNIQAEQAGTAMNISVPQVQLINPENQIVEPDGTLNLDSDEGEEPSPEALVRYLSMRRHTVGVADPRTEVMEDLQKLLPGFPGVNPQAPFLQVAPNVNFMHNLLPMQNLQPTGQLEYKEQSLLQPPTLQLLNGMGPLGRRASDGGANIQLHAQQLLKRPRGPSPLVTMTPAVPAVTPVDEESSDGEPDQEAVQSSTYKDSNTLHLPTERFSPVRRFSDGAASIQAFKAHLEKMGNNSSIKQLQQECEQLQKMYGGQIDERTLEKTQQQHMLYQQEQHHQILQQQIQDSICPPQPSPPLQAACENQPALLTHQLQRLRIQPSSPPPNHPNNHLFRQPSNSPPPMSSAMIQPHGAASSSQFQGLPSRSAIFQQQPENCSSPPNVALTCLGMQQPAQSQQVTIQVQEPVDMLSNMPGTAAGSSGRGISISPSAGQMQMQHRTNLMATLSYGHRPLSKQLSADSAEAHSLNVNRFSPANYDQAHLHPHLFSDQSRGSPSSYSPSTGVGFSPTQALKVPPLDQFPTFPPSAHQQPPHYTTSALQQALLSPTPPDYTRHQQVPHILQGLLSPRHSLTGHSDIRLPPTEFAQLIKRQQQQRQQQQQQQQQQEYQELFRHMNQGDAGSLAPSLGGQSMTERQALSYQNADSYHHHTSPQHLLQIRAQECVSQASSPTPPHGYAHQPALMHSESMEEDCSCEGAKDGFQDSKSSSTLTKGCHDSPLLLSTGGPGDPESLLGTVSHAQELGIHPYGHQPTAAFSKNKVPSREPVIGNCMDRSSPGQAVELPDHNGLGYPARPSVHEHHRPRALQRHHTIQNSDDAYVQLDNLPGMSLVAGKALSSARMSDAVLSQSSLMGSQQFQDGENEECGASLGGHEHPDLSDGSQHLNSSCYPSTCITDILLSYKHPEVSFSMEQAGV

IC50 (SIK1)	IC50 (SIK2)	IC50 (SIK3)	IC50 ([1]; Macrophage)	EC50 ([2]; Macrophage)	SMILES	IC50 [1]	EC50 [2]
2.5 nM	2.2 nM	7.5 nM	26.4 nM	109 nM	COc1cccc2ncc(-c3cc(OCC4(N)CCCC4)c(C#N)c(SC)c3)n12 [Example 1, 2-((1-Aminocyclopentyl)methoxy)-4-(5-methoxyimidazo[1,2-a]pyridin-3-yl)-6-(methylthio)benzonitrile]	–	–
0.5 nM	0.6 nM	2 nM	5.2 nM	21 nM	CC[C@@H]1CCC[C@@]1(N)COc1cc(-c2cnc3cccc(OC)n23)cc(OC)c1C#N [Example 2A, 2-(((1S,2R)-1-Amino-2-ethylcyclopentyl)methoxy)-6-methoxy-4-(5-methoxyimidazo[1,2-a]pyridin-3-yl)benzonitrile]	–	–
12 nM	11.1 nM	71.3 nM	271 nM	570 nM	CC[C@H]1CCC[C@]1(N)COc1cc(-c2cnc3cccc(OC)n23)cc(OC)c1C#N [Example 2B, 2-(((1R,2S)-1-Amino-2-ethylcyclopentyl)methoxy)-6-methoxy-4-(5-methoxyimidazo[1,2-a]pyridin-3-yl)benzonitrile]	–	–
0.8 nM	2.1 nM	4.7 nM	29.7 nM	92 nM	CCC1CCC(N)(COc2cc(-c3cnc4cccc(OC)n34)cc(OC)c2C#N)C1 (centres unmarked) [Example 3, 2-((1-Amino-3-ethylcyclopentyl)methoxy)-6-methoxy-4-(5-methoxyimidazo[1,2-a]pyridin-3-yl)benzonitrile]	–	–
1.1 nM	1 nM	3.3 nM	11.1 nM	23 nM	CCC1CCCC1(N)COc1cc(-c2cnc3cccc(OC)n23)cc(SC)c1C#N (centres unmarked) [Example 8, 2-((1-Amino-2-ethylcyclopentyl)methoxy)-4-(5-methoxyimidazo[1,2-a]pyridin-3-yl)-6-(methylthio)benzonitrile]	–	–
2.4 nM	2.9 nM	11.4 nM	29.1 nM	75 nM	COc1cccc2ncc(-c3cc(OCC4(N)CCCCC4)c(C#N)c(SC)c3)n12 [Example 29, 2-((1-Aminocyclohexyl)methoxy)-4-(5-methoxyimidazo[1,2-a]pyridin-3-yl)-6 (methylthio)benzonitrile]	–	–
1.2 nM	0.8 nM	2.1 nM	4.8 nM	35 nM	CSc1cc(-c2cnc3cccc(C#N)n23)cc(OCC2(N)CCCC2)c1C#N [Example 36, 3-(3-((1-Aminocyclopentyl)methoxy)-4-cyano-5-(methylthio)phenyl)imidazo[1,2-a]pyridine-5-carbonitrile]	–	–
1.5 nM	1 nM	1.8 nM	20.1 nM	51 nM	CCOC(=O)c1cc(C#N)n2c(-c3cc(OCC4(N)CCCC4)c(C#N)c(SC)c3)cnc2c1 [Example 38, Ethyl 3-(3-((1-aminocyclopentyl)methoxy)-4-cyano-5-(methylthio)phenyl)-5-cyanoimidazo[1,2-a]pyridine-7-carboxylate]	–	–
0.5 nM	1 nM	1.1 nM	6 nM	25 nM	COc1ccc2ncc(-c3cc(OCC4(N)CCCC4)c(C#N)c(SC)c3)n2c1C#N [Example 39, 3-(3-((1-Aminocyclopentyl)methoxy)-4-cyano-5-(methylthio)phenyl)-6-methoxyimidazo[1,2-a]pyridine-5-carbonitrile]	–	–
0.4 nM	0.6 nM	1.6 nM	6.1 nM	17 nM	CSc1cc(-c2cnc3ccc(C)c(C#N)n23)cc(OCC2(N)CCCC2)c1C#N [Example 40, 3-(3-((1-Aminocyclopentyl)methoxy)-4-cyano-5-(methylthio)phenyl)-6-methylimidazo[1,2-a]pyridine-5-carbonitrile]	–	–
1.9 nM	0.8 nM	0.7 nM	5.3 nM	54 nM	CSc1cc(-c2cnc3cc(C)cc(C#N)n23)cc(OCC2(N)CCCC2)c1C#N [Example 41, 3-(3-((1-Aminocyclopentyl)methoxy)-4-cyano-5-(methylthio)phenyl)-7-methylimidazo[1,2-a]pyridine-5-carbonitrile]	–	–
3 nM	0.9 nM	2.2 nM	10.7 nM	85 nM	CSc1cc(-c2cnc3cc(Cl)cc(C#N)n23)cc(OCC2(N)CCCC2)c1C#N [Example 42, 3-(3-((1-Aminocyclopentyl)methoxy)-4-cyano-5-(methylthio)phenyl)-7-chloroimidazo[1,2-a]pyridine-5-carbonitrile]	–	–
0.2 nM	0.4 nM	1.1 nM	0.6 nM	2 nM	CSc1cc(-c2cnc3ccc(N(C)C)c(C#N)n23)cc(OCC2(N)CCCC2)c1C#N [Example 43, 3-(3-((1-Aminocyclopentyl)methoxy)-4-cyano-5-(methylthio)phenyl)-6-(dimethylamino)imidazo[1,2-a]pyridine-5-carbonitrile]	–	–
2.3 nM	1.7 nM	2.1 nM	21 nM	38 nM	CCc1ccc2ncc(-c3cc(OCC4(N)CCCC4)c(C#N)c(SC)c3)n2c1C#N [Example 44, 3-(3-((1-Aminocyclopentyl)methoxy)-4-cyano-5-(methylthio)phenyl)-6-ethylimidazo[1,2-a]pyridine-5-carbonitrile]	–	–
0.1 nM	0.2 nM	0.4 nM	0.6 nM	3 nM	CSc1cc(-c2cnc3ccc(N)c(C#N)n23)cc(OCC2(N)CCCC2)c1C#N [Example 45, 6-Amino-3-(3-((1-aminocyclopentyl)methoxy)-4-cyano-5-(methylthio)phenyl)imidazo[1,2-a]pyridine-5-carbonitrile]	–	–
0.8 nM	1.5 nM	2.8 nM	6.9 nM	28 nM	CSc1cc(-c2cnc3ccc(N4CCC4)c(C#N)n23)cc(OCC2(N)CCCC2)c1C#N [Example 46, 3-(3-((1-Aminocyclopentyl)methoxy)-4-cyano-5-(methylthio)phenyl)-6-(azetidin-1-yl)imidazo[1,2-a]pyridine-5-carbonitrile]	–	–
0.2 nM	0.4 nM	0.9 nM	1.4 nM	6 nM	CSc1cc(-c2cnc3ccc(N4CCCC4)c(C#N)n23)cc(OCC2(N)CCCC2)c1C#N [Example 47, 3-(3-((1-Aminocyclopentyl)methoxy)-4-cyano-5-(methylthio)phenyl)-6-(pyrrolidin-1-yl)imidazo[1,2-a]pyridine-5-carbonitrile]	–	–
0.4 nM	0.7 nM	1.7 nM	0.8 nM	4 nM	COc1cc(-c2cnc3ccc(N(C)C)c(C#N)n23)cc(OCC2(N)CCCC2)c1C#N [Example 48, 3-(3-((1-Aminocyclopentyl)methoxy)-4-cyano-5-methoxyphenyl)-6-(dimethylamino)imidazo[1,2-a]pyridine-5-carbonitrile]	–	–

SMILES	IC50 (SIK1)	IC50 (SIK2)	IC50 (SIK3)	IC50 ([1]; Macrophage)	EC50 ([2]; Macrophage)	IC50 [1]	EC50 [2]
COc1cc(-c2cnc3cccc(OC)n23)cc(OCC2(N)CCCN(CC(F)(F)F)C2)c1C#N (centres unmarked) [Example 21A]	1 nM	1.1 nM	4.4 nM	–	–	19.6 nM	50 nM
